Test results as given in patent US12390440B2, “Immunomodulating trifluoromethyl-aminal azalides” (Zoetis Services LLC, priority 2020, dated 2025).

How the values were obtained:
IL-1β = experiment: Bovine whole blood assay, IL-1β; type: cell-based; conditions: overstimulation of IL-1β, perceived cellular toxicity concentration;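 note: compound concentration at which rising IL-1β release signals cytotoxicity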
Experimental: (§1) (protected from light) for 30 minutes.

TNF-α = experiment: Bovine whole blood assay, LPS-induced TNF-α; type: cell-based; conditions: Bos taurus, fresh whole bovine blood, LPS 1 μg/mL
Experimental: as §1

IL-6 = experiment: Bovine whole blood assay, IL-6; type: cell-based; conditions: Bos taurus, fresh whole bovine blood, LPS 1 μg/mL
Experimental: as §1

[1] = system: BRD pathogens, M. haemolytica and P. multocida; experiment: MIC screening panel, BRD pathogens (CLSI broth micro-dilution); conditions: read-out: MIC flag (*) at Ex #

Row | SMILES | IC50 (TNF-α) [µM] | IC50 (IL-6) [µM] | IL-1β OS of LPS (IL-1β) [µM] | MIC [1] [µg/mL]
1 | CC[C@H]1OC(=O)[C@H](C)[C@@H](O[C@H]2C[C@@](C)(OC)[C@](O)(CNC(CO)CO)[C@H](C)O2)[C@H](C)[C@@H](O[C@@H]2O[C@H](C)C[C@H]3[C@H]2OC(C(F)(F)F)N3C)[C@](C)(O)C[C@@H](C)CN[C@H](C)[C@@H](O)[C@]1(C)O (stereo partly drawn) [Example A-4, (2R,3S,4R,5R,8R,10R,11R,12S,13S,14R)-13-(((2R,4R,5S,6S)-5-(((1,3-dihydroxypropan-2-yl)amino)methyl)-5-hydroxy-4-methoxy-4,6-dimethyltetrahydro-2H-pyran-2-yl)oxy)-11-(((3aR,4S,6R,7aS)-1,6-dimethyl-2-(trifluoromethyl)hexahydro-2H-pyrano[4,3-d]oxazol-4-yl)oxy)-2-ethyl-3,4,10-trihydroxy-3,5,8,10,12,14-hexamethyl-1-oxa-6-azacyclopentadecan-15-one] | 40 | 200 | 80 | 
2 | CC[C@H]1OC(=O)[C@H](C)[C@@H](O[C@H]2C[C@@](C)(OC)[C@](O)(CNCC3CCC(=O)N3)[C@H](C)O2)[C@H](C)[C@@H](O[C@@H]2O[C@H](C)C[C@H]3[C@H]2OC(C(F)(F)F)N3C)[C@](C)(O)C[C@@H](C)CN[C@H](C)[C@@H](O)[C@]1(C)O (stereo partly drawn) [Example A-21, (2R,3S,4R,5R,8R,10R,11R,12S,13S,14R)-11-(((3aR,4S,6R,7aS)-1,6-dimethyl-2-(trifluoromethyl)hexahydro-2H-pyrano[4,3-d]oxazol-4-yl)oxy)-2-ethyl-3,4,10-trihydroxy-13-(((2R,4R,5S,6S)-5-hydroxy-4-methoxy-4,6-dimethyl-5-((((5-oxopyrrolidin-2-yl)methyl)amino)methyl)tetrahydro-2H-pyran-2-yl)oxy)-3,5,8,10,12,14-hexamethyl-1-oxa-6-azacyclopentadecan-15-one] | 80 | 78 | 32 | 
3 | CC[C@H]1OC(=O)[C@H](C)[C@@H](O[C@H]2C[C@@](C)(OC)[C@](O)(CNCCNC(C)=O)[C@H](C)O2)[C@H](C)[C@@H](O[C@@H]2O[C@H](C)C[C@H]3[C@H]2OC(C(F)(F)F)N3C)[C@](C)(O)C[C@@H](C)CN[C@H](C)[C@@H](O)[C@]1(C)O (stereo partly drawn) [Example A-22, N-(2-((((2S,3S,4R,6R)-6-(((2R,3S,4R,5R,8R,10R,11R,12S,13S,14R)-11-(((3aR,4S,6R,7aS)-1,6-dimethyl-2-(trifluoromethyl)hexahydro-2H-pyrano[4,3-d]oxazol-4-yl)oxy)-2-ethyl-3,4,10-trihydroxy-3,5,8,10,12,14-hexamethyl-15-oxo-1-oxa-6-azacyclopentadecan-13-yl)oxy)-3-hydroxy-4-methoxy-2,4-dimethyltetrahydro-2H-pyran-3-yl)methyl)amino)ethyl)acetamide] | 62 |  | 40 | < 64
4 | CC[C@H]1OC(=O)[C@H](C)[C@@H](O[C@H]2C[C@@](C)(OC)[C@](O)(CNCCCNS(C)(=O)=O)[C@H](C)O2)[C@H](C)[C@@H](O[C@@H]2O[C@H](C)C[C@H]3[C@H]2OC(C(F)(F)F)N3C)[C@](C)(O)C[C@@H](C)CN[C@H](C)[C@@H](O)[C@]1(C)O (stereo partly drawn) [Example A-23, N-(3-((((2S,3S,4R,6R)-6-(((2R,3S,4R,5R,8R,10R,11R,12S,13S,14R)-11-(((3aR,4S,6R,7aS)-1,6-dimethyl-2-(trifluoromethyl)hexahydro-2H-pyrano[4,3-d]oxazol-4-yl)oxy)-2-ethyl-3,4,10-trihydroxy-3,5,8,10,12,14-hexamethyl-15-oxo-1-oxa-6-azacyclopentadecan-13-yl)oxy)-3-hydroxy-4-methoxy-2,4-dimethyltetrahydro-2H-pyran-3-yl)methyl)amino)propyl)methanesulfonamide] | 134 |  | 40 | < 64
5 | CC[C@H]1OC(=O)[C@H](C)[C@@H](O[C@H]2C[C@@](C)(OC)[C@](O)(CNCCN3CCOC3=O)[C@H](C)O2)[C@H](C)[C@@H](O[C@@H]2O[C@H](C)C[C@H]3[C@H]2OC(C(F)(F)F)N3C)[C@](C)(O)C[C@@H](C)CN[C@H](C)[C@@H](O)[C@]1(C)O (stereo partly drawn) [Example A-24, (2R,3S,4R,5R,8R,10R,11R,12S,13S,14R)-11-(((3aR,4S,6R,7aS)-1,6-dimethyl-2-(trifluoromethyl)hexahydro-2H-pyrano[4,3-d]oxazol-4-yl)oxy)-2-ethyl-3,4,10-trihydroxy-13-(((2R,4R,5S,6S)-5-hydroxy-4-methoxy-4,6-dimethyl-5-(((2-(2-oxooxazolidin-3-yl)ethyl)amino)methyl)tetrahydro-2H-pyran-2-yl)oxy)-3,5,8,10,12,14-hexamethyl-1-oxa-6-azacyclopentadecan-15-one] | 70 | 29 | 40 | 

Further lines, with some results ahead:

Row | IC50 (TNF-α) [µM] | IC50 (IL-6) [µM] | SMILES | IL-1β OS of LPS (IL-1β) [µM] | MIC [1] [µg/mL]
6 | 28 | 70 | CC[C@H]1OC(=O)[C@H](C)[C@@H](O[C@H]2C[C@@](C)(OC)[C@](O)(CNCCS(C)(=O)=O)[C@H](C)O2)[C@H](C)[C@@H](O[C@@H]2O[C@H](C)C[C@H]3[C@H]2OC(C(F)(F)F)N3C)[C@](C)(O)C[C@@H](C)CN[C@H](C)[C@@H](O)[C@]1(C)O (stereo partly drawn) [Example A-9, (2R,3S,4R,5R,8R,10R,11R,12S,13S,14R)-11-(((3aR,4S,6R,7aS)-1,6-dimethyl-2-(trifluoromethyl)hexahydro-2H-pyrano[4,3-d]oxazol-4-yl)oxy)-2-ethyl-3,4,10-trihydroxy-13-(((2R,4R,5S,6S)-5-hydroxy-4-methoxy-4,6-dimethyl-5-(((2-(methylsulfonyl)ethyl)amino)methyl)tetrahydro-2H-pyran-2-yl)oxy)-3,5,8,10,12,14-hexamethyl-1-oxa-6-azacyclopentadecan-15-one] | 40 | 
7 | 23 |  | CC[C@H]1OC(=O)[C@H](C)[C@@H](O[C@H]2C[C@@](C)(OC)[C@](O)(CNCCN3CCCCC3=O)[C@H](C)O2)[C@H](C)[C@@H](O[C@@H]2O[C@H](C)C[C@H]3[C@H]2OC(C(F)(F)F)N3C)[C@](C)(O)C[C@@H](C)CN[C@H](C)[C@@H](O)[C@]1(C)O (stereo partly drawn) [Example A-15, (2R,3S,4R,5R,8R,10R,11R,12S,13S,14R)-11-(((3aR,4S,6R,7aS)-1,6-dimethyl-2-(trifluoromethyl)hexahydro-2H-pyrano[4,3-d]oxazol-4-yl)oxy)-2-ethyl-3,4,10-trihydroxy-13-(((2R,4R,5S,6S)-5-hydroxy-4-methoxy-4,6-dimethyl-5-(((2-(2-oxopiperidin-1-yl)ethyl)amino)methyl)tetrahydro-2H-pyran-2-yl)oxy)-3,5,8,10,12,14-hexamethyl-1-oxa-6-azacyclopentadecan-15-one] | 40 | < 64
8 | 3 | 1 | CCCNC[C@]1(O)[C@H](C)O[C@@H](O[C@H]2[C@H](C)[C@@H](O[C@@H]3O[C@H](C)C[C@H]4[C@H]3OC(C(F)(F)F)N4CC(C)C)[C@](C)(O)C[C@@H](C)CN[C@H](C)[C@@H](O)[C@](C)(O)[C@@H](CC)OC(=O)[C@@H]2C)C[C@@]1(C)OC (stereo partly drawn) [Example A-27, (2R,3S,4R,5R,8R,10R,11R,12S,13S,14R)-2-ethyl-3,4,10-trihydroxy-13-(((2R,4R,5S,6S)-5-hydroxy-4-methoxy-4,6-dimethyl-5-((propylamino)methyl)tetrahydro-2H-pyran-2-yl)oxy)-11-(((3aR,4S,6R,7aS)-1-isobutyl-6-methyl-2-(trifluoromethyl)hexahydro-2H-pyrano[4,3-d]oxazol-4-yl)oxy)-3,5,8,10,12,14-hexamethyl-1-oxa-6-azacyclopentadecan-15-one] | 2 | < 64
